Experimental findings from BindingDB's records for doi:10.1016/j.bmcl.2016.04.030 (Galecto Biotech, 2016) are described below.

A short description of experiment [1]: Antagonist activity at P2Y12 receptor in human platelets assessed as inhibition of ADP-induced platelet aggregation by turbidimetric method.
Experiment [2] can be described thus: Antagonist activity at P2Y12 receptor in human platelets assessed as inhibition of ADP-induced platelet aggregation by microplate reader analysis.

Structures are written as SMILES.

The IC50 is the midpoint of a concentration-inhibition curve.

Consider `Nc1ncnc2c1ncn2[C@@H]1O[C@H](COP(=O)(O)OP(=O)(O)C(Cl)(Cl)P(=O)(O)O)[C@@H](O)[C@H]1O`, for which, in experiment [1], the IC50 was found to be 316 µM.
Take `CCCSc1nc(N)c2ncn([C@@H]3O[C@H](COP(=O)(O)OP(=O)(O)C(Cl)(Cl)P(=O)(O)O)[C@@H](O)[C@H]3O)c2n1`: in experiment [1], the IC50 came to 0.0025 µM.
Regarding `CNc1cc2[nH]c(=O)n(-c3ccc(NC(=O)NS(=O)(=O)c4ccc(Cl)s4)cc3)c(=O)c2cc1F` [ELINOGREL], in experiment [2], the IC50 is under 10 µM.
In the case of `Nc1ncnc2c1ncn2[C@@H]1O[C@H](CO[P@@](=O)(O)O[P@](=O)(O)OP(=O)(O)O)[C@@H](O)[C@H]1O` [ATP], the IC50 in experiment [1] amounted to 251 µM.
In the case of `O=P(O)(OC[C@H]1O[C@@H](n2cnc3c(NCC(F)(F)F)nc(SCCC(F)(F)F)nc32)[C@H](O)[C@@H]1O)OP(=O)(O)C(Cl)(Cl)P(=O)(O)O`, in experiment [1], the IC50 is 0.000794 µM.
